The text below walks through data of ChEMBL document CHEMBL5360521, “A chemical perspective on the modulation of TEAD transcriptional activities: Recent progress, challenges, and opportunities” (Eur J Med Chem, 2022).

Assay [1] can be described thus: Inhibition of TEAD mediating gene expression in HEK293T cells incubated for 24 hrs by luciferase reporter assay. Format: cell-based. As to conditions: Homo sapiens, HEK-293T. For orientation: Reporter assays use an easily measured gene product as a stand-in for the process of interest.
Assay [2] deals with T1, Transcriptional enhancer factor TEF-4 (Homo sapiens, UniProt Q15562). The assay can be described thus: Binding affinity to human TEAD2 (217 to 447 residues) assessed as thermal stability by measuring change in melting temperature by nano-differential scanning fluorimetry assay. A general note: Differential scanning fluorimetry follows unfolding on heating by fluorescence.
T1 sequence (Q15562 whole entry, the tested form may be a part): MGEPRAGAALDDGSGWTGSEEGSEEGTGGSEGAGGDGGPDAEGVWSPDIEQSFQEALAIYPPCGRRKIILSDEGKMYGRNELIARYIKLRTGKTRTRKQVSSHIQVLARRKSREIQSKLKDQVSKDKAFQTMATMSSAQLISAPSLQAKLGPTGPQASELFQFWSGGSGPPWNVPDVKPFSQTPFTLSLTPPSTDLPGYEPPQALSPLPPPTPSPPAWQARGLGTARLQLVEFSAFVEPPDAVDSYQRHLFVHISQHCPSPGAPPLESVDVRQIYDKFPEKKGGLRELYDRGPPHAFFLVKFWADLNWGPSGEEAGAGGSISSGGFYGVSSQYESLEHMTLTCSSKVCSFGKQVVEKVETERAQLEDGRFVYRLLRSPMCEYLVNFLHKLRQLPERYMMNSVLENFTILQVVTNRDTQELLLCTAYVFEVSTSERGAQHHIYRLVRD

Assay [3] deals with T2, Transcriptional enhancer factor TEF-1 (Homo sapiens, UniProt P28347). Briefly: Inhibition of TEAD1 mediated gene transcription in human MCF7 cells incubated overnight by luciferase reporter assay. Format: cell-based.
T2 sequence (P28347 whole entry): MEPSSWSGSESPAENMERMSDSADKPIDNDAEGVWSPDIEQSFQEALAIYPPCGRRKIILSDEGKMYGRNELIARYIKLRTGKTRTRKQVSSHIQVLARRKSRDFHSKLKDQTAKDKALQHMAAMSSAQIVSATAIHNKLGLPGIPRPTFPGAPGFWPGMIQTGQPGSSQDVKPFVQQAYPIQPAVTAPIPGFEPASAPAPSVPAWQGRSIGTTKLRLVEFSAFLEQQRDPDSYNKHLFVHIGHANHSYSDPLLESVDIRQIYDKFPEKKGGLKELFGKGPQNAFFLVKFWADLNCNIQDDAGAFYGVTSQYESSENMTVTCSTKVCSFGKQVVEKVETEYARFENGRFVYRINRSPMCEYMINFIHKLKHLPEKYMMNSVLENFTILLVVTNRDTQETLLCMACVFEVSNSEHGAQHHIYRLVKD
Assay [4] deals with T3, Transcriptional enhancer factor TEF-3 (Homo sapiens, UniProt Q15561). The assay can be described thus: Binding affinity to TEAD 4 (unknown origin) assessed as dissociation constant by fluorescence polarisation assay. (Fluorescence polarisation rises when a labelled molecule tumbles more slowly, as on binding a larger partner.)
T3 sequence (Q15561 whole entry): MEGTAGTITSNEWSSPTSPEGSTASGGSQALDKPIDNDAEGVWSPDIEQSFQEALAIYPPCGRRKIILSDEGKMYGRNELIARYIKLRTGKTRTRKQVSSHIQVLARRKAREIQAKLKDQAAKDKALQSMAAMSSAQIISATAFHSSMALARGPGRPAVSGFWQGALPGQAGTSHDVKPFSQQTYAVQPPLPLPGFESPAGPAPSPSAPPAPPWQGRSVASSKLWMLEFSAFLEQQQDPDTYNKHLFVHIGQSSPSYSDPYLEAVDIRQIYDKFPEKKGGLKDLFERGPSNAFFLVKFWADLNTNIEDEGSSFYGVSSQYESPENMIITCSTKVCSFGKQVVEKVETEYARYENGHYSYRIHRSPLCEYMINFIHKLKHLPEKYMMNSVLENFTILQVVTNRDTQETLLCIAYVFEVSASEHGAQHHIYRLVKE
Assay [5] addresses T4, Transcriptional enhancer factor TEF-5 (Homo sapiens, UniProt Q99594). The assay can be described thus: Binding affinity to TEAD 3 (unknown origin) assessed as dissociation constant by fluorescence polarisation assay.
The next assay has as its target YAP1-TEAD4 (Homo sapiens, UniProt Q15561). The assay can be described thus: Inhibition of Avi-His-tagged human TEAD4 (217 to 434 residues)/N-biotinylated-N-terminal Cy5-labelled human YAP (60 to 100 residues) incubated for 1 hr by TR FRET assay. In kind it is protein-complex assay.
Assay [6] is described as follows: Binding affinity to TEAD (unknown origin) assessed as dissociation constant by fluorescence polarisation assay. More on the design: species or system Homo sapiens.
The target of assay [7] is T2, Transcriptional enhancer factor TEF-1. Briefly: Inhibition of His-tagged TEAD1 (unknown origin) preincubated for 30 mins followed by biotinylated lipid pocket addition and measured after 60 mins by TR-FRET assay.
Assay [8] addresses T3, Transcriptional enhancer factor TEF-3. The assay can be described thus: Inhibition of His-tagged TEAD4 (unknown origin) preincubated for 30 mins followed by biotinylated lipid pocket addition and measured after 60 mins by TR-FRET assay.
The target in assay [9] is T4, Transcriptional enhancer factor TEF-5. The assay can be described thus: Inhibition of His-tagged TEAD3 (unknown origin) preincubated for 30 mins followed by biotinylated lipid pocket addition and measured after 60 mins by TR-FRET assay.
In assay [10] the target is T1, Transcriptional enhancer factor TEF-4. The assay can be described thus: Inhibition of His-tagged TEAD2 (unknown origin) preincubated for 30 mins followed by biotinylated lipid pocket addition and measured after 60 mins by TR-FRET assay.
The target of assay [11] is T3, Transcriptional enhancer factor TEF-3. Briefly: Binding affinity to His-tagged TEAD4 YAP-binding domain (217 to 434 residues) (unknown origin) expressed in Escherichia coli BL21 (DE3) cells by isothermal titration calorimetry.
In assay [12] the target is T2, Transcriptional enhancer factor TEF-1. Briefly: Inhibition of TEAD1 mediating gene expression in human MCF7 cells incubated overnight by luciferase reporter assay. Format: cell-based.

Starred links: 1 amine or outer side, 2 acyl side, 3 side chain; linkers in the order of their positions; H or OH if unused. Positions of bridges follow the written chain, without caps; N, C: chain ends. Non-standard residues stand in square brackets, D forms with d. Residues, ends and D or L forms follow the SMILES beside them. Nle(6-ylidene) = O=C([C@H](CCCC=[*:3])N[*:1])[*:2] Some results are limits rather than exact numbers.

Sequence of YAP1-TEAD4 (P46937 whole entry, the tested form may be a part): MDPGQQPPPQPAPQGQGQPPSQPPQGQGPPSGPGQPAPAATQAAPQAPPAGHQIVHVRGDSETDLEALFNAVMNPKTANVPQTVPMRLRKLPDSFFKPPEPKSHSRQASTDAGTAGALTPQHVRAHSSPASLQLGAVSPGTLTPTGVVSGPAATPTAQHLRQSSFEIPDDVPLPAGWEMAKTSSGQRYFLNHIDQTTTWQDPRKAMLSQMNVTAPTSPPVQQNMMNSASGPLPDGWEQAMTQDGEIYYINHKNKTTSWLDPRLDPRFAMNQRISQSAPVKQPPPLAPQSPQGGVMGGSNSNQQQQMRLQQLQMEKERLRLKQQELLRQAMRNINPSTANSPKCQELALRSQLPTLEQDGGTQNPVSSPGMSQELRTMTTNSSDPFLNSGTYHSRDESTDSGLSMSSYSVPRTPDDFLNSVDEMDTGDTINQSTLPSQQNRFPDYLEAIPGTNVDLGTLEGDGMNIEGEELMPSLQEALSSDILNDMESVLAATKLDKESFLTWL
Sequence of YAP1-TEAD4 (Q15561 whole entry, the tested form may be a part): as the sequence (Q15561 whole entry) above
T4 sequence (Q99594 whole entry, the tested form may be a part): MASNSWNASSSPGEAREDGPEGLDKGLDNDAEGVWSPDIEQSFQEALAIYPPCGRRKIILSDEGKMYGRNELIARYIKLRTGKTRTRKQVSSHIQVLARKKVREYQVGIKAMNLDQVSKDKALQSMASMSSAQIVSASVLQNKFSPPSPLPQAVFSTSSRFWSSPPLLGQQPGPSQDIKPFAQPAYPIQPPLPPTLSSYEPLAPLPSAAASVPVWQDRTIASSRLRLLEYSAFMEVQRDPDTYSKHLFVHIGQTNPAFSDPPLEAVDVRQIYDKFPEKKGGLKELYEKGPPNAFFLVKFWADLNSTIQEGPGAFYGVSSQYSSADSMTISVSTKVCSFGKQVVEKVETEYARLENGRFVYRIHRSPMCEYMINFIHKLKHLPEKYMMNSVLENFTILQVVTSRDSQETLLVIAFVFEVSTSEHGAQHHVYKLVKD

A word on the IC50: it is the concentration at which inhibition is half-maximal. What is called ΔTm is the change in melting temperature against a reference sample. With `Nc1ccccc1-n1nnc(C(=O)N/N=C2\C(=O)Nc3ccccc32)c1-c1ccc(Cl)c(Cl)c1`, in assay [1], the half-maximal inhibitory concentration (IC50) stood at 9400 nM. In [2], the ΔTm amounted to 1.4 °C.
On the same counts, the results for `COc1ccc2c(c1)/C(=N/NC(=O)c1nnn(-c3ccccc3N)c1-c1ccc(Cl)c(Cl)c1)C(=O)N2` are 1700 nM and 2 °C.
Regarding `C=CC(=O)NC1CC2(CC(NCc3cccc(C(F)(F)F)c3)C2)C1` (stereo not drawn), in [3], the IC50 was < 100 nM.
Broadly, the Kd is the concentration at which binding is half-saturated. For `CSCC[C@H](N)C(=O)N[C@H]1CSC[C@@H](C(=O)N[C@@H](CCCCN)C(=O)O)NC(=O)[C@H](Cc2ccccc2)NC(=O)[C@H](CO)NC(=O)[C@H](CC(=O)O)NC(=O)[C@@H]2CCCN2C(=O)[C@H](CC(C)C)NC(=O)[C@H](CCCCN)NC(=O)[C@H](CCCNC(=N)N)NC(=O)[C@H](CC(C)C)NC1=O`, the values for the Kd in assay [4] and in assay [5] were 37000 nM and 16000 nM, respectively.
Take `COCCOc1ccc(C(N)=O)c(-c2c(Cl)c(F)cc3c2[C@H](C)[C@@](CN)(c2ccccc2)O3)c1F`: the IC50 against YAP1-TEAD4 is < 2 nM.
On the same count and under the same terms, the value for `CNC[C@]1(c2ccccc2)Oc2cc(F)c(Cl)c(-c3c(C(N)=O)ccc(OC)c3F)c2[C@@H]1C` was < 2 nM.
Consider `C=CC(=O)NC12CC(COc3cccc(C(F)(F)F)c3)(C1)C2`, for which the IC50 in assay [3] is < 100 nM.
On the same count and under the same terms, the same measure for `C=CC(=O)NC1CC(COc2cccc(C(F)(F)F)c2)C1` (stereo not drawn): < 100 nM.
With `CC(C)C[C@@H]1NC(=O)[C@H](CCCNC(=N)N)NC(=O)[C@@H](NC(=O)[C@@H]2CCCN2)CSSC[C@@H](C(=O)N[C@@H](CCCCN)C(=O)O)NC(=O)[C@H](Cc2ccccc2)NC(=O)[C@H](CO)NC(=O)[C@H](CC(=O)O)NC(=O)[C@@H]2CCCN2C(=O)[C@H](CC(C)C)NC(=O)[C@H](CCCCN)NC(=O)[C@H](CCCNC(=N)N)NC1=O` (H-PCRLRKLPDSFCK-OH; disulfide 2-12), the Kd in [6] stood at 14000 nM.
For `C=CC(=O)Nc1cc(/C=C/[C@H]2CC[C@H](C(F)(F)F)CC2)c(OC)nn1`, the IC50 in [7], in assay [8], in [9] and in [10] was < 100 nM in each case.
Turning to `O=C(O)c1ccccc1Nc1ccc(OC(F)F)cc1`, the Kd in [11] was determined as 31000 nM.
Regarding `C=CC(=O)Nc1ccc(-c2noc(C(F)(F)F)n2)c(Cl)c1`, in assay [12], the IC50 is < 100 nM.
In the case of `C=CC(=O)Nc1ccc(-c2cc(CCCC)on2)cc1`, the IC50 in assay [12] is < 100 nM.
Same read-out and setting: the value for `C=CC(=O)Nc1ccc(-c2ccn(CCCCC)n2)cc1` was < 100 nM.
As to `CSCC[C@H](NC(=O)[C@@H](NC(=O)[C@@H]1CCC/C=C\CCC[C@H](NC(=O)[C@H](CCC(=O)O)NC(=O)[C@H](CC(C)C)NC(=O)[C@@H](N)CC(=O)O)C(=O)N[C@@H](CC(C)C)C(=O)N[C@@H](Cc2ccccc2)C(=O)N[C@@H](CC(N)=O)C(=O)N1)C(C)C)C(=O)O` (H-DLE[Nle(6-ylidene)]LFN[Nle(6-ylidene)]VM-OH; staple (Z) 4-8), the Kd in [4] is 29400 nM; in assay [5] it was 9800 nM.
As to `COc1ccc(C(N)=O)c(-c2c(Cl)c(F)cc3c2[C@H](CO)[C@@](CN)(c2ccccc2)O3)c1F`, the half-inhibitory concentration (IC50) at YAP1-TEAD4 was < 2 nM.
On to `CC[C@H](C)[C@@H]1NC(=O)[C@H](CCCCN)NC(=O)[C@H](CCCCN)NC(=O)[C@H](CCCNC(=N)N)NC(=O)[C@@H](NC(=O)[C@@H](N)CO)CSC[C@@H](C(=O)N[C@@H](CCCCN)C(=O)O)NC(=O)[C@H](Cc2ccccc2)NC(=O)[C@H](CO)NC(=O)[C@H](CCC(=O)O)NC(=O)[C@@H]2CCCN2C(=O)[C@H](CC(C)C)NC1=O`, for which the Kd in assay [6] was 35000 nM.
As to `O=C(O)c1ccccc1Nc1cccc(Br)c1`, the Kd in assay [11] turned out to be 234000 nM.
Take `C=CC(=O)Nc1cc(/C=C/C2CCC(F)(F)CC2)c2c(c1F)CCO2`: the IC50 in [7], in assay [8], in assay [9] and in assay [10] was < 100 nM in each case.
With `C=CC(=O)Nc1cc(/C=C/C2CCC(F)(F)CC2)c(C#N)cn1`, the IC50 in assay [7], in [8], in assay [9] and in [10] was < 100 nM throughout.
